pEC50: −log10 of the molar value.
What was measured:
[1] = target: T1, GST tagged LXRalpha LBD (ligand binding domain) (Homo sapiens, UniProt Q13133); experiment: LanthaScreen TR-FRET Liver X Receptor Coactivator Assay, LXR alpha-LBD; format: biochemical; settings: relative to reference T0901317; for pEC50: read-out: LXR alpha IP; for Emax: activity at max dose (efficacy), read-out: LXR alpha act @ max dose (%)
T1 construct: purchased Invitrogen pv4655
T1 sequence (Q13133 209-447 limits assumed): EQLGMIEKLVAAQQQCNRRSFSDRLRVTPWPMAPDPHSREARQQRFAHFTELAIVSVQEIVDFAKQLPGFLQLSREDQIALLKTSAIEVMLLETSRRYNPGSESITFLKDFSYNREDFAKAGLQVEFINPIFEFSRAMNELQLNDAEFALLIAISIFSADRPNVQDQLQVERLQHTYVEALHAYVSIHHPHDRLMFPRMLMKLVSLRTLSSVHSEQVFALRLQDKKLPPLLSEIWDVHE
Outline: (§1)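 Cmpd + LBD → add fluorescein coactivator peptide/Tb-anti-GST Ab mix → incubate RT → TR-FRET readout. IP and Emax referenced to T0901317 (dual LXR agonist).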

[2] = target: T2, GST tagged LXRbeta LBD (ligand binding domain) (Homo sapiens, UniProt P55055); experiment: LanthaScreen TR-FRET Liver X Receptor Coactivator Assay, LXR beta-LBD; format: biochemical; settings: relative to reference T0901317; for pEC50: Inflection Point (potency), co-activator recruitment, read-out: LXR beta IP; for Emax: activity at max dose (efficacy), read-out: LXR beta act @ max dose (%)
T2 construct: purchased Invitrogen pv4658.pps
T2 sequence (P55055 222-460 limits assumed): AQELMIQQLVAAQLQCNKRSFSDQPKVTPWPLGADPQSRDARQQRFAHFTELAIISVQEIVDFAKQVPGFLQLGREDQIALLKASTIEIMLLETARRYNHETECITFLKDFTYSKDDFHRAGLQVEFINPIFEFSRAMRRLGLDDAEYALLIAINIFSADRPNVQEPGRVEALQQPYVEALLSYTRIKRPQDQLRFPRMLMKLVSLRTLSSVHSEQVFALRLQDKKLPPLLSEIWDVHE
Outline: as §1

[3] = Inflection Point (potency), co-activator recruitment

Work on CCCCN(C)C(=O)c1ccc(N2CCC(C3CCN(C(=O)[C@](O)(c4ccccc4)C(F)(F)F)CC3)CC2)cc1Cl [Example E-59, N-butyl-2-chloro-N-methyl-4-{1′-[(2R)-3,3,3-trifluoro-2-hydroxy-2-phenylpropanoyl]-4,4′-bipiperidin-1-yl}benzamide] yielded a pEC50 [1, 3] of 5.62, an Emax [1] of 21% and a pEC50 [2] of 6.68. It also gave an Emax [2] of 89%.
CN(C)C(=O)c1c(Cl)cc(N2CCC(C3CCN(C(=O)c4c(F)cccc4F)CC3)CC2)cc1Cl [Example A-32, 2,6-dichloro-4-{1′-[(2,6-difluorophenyl)carbonyl]-4,4′-bipiperidin-1-yl}-N,N-dimethylbenzamide] gave a pEC50 [1, 3] of 6.13, an Emax [1] of 24% and a pEC50 [2] of 7.00. For the same molecule, the Emax [2] was 88%.
Cc1cccc(C2(C(=O)N3CCC(C4CCN(c5ccc(C(=O)N(C)C)c(Cl)c5)CC4)CC3)CCC2)c1 [Example A-19, 2-chloro-N,N-dimethyl-4-(1′-{[1-(3-methylphenyl)cyclobutyl]carbonyl}-4,4′-bipiperidin-1-yl)benzamide] gave a pEC50 [1, 3] of 5.76, an Emax [1] of 17% and a pEC50 [2] of 6.91. For the same molecule, the Emax [2] was 94%.
For CCCC(O)(C(=O)N1CCC(C2CCN(c3ccc(C(=O)N(C)C)c(Cl)c3)CC2)CC1)C(F)(F)F (centres unmarked) [Example A-70, 2-chloro-4-{1′-[2-hydroxy-2-(trifluoromethyl)pentanoyl]-4,4′-bipiperidin-1-yl}-N,N-dimethylbenzamide], the pEC50 [1, 3] was 5.52, the Emax [1] was 52% and the pEC50 [2] was 6.75. For the same molecule, the Emax [2] was 109%.
Work on CN(C)C(=O)c1ccc(N2CCC(C3CCN(C(=O)C4(C(F)(F)F)CCC4)CC3)CC2)cc1Cl [Example A-29, 2-chloro-N,N-dimethyl-4-(1′-{[1-(trifluoromethyl)cyclobutyl]carbonyl}-4,4′-bipiperidin-1-yl)benzamide] yielded a pEC50 [1, 3] of 5.45, an Emax [1] of 46% and a pEC50 [2] of 6.28. It also gave an Emax [2] of 106%.
With CN(C)C(=O)c1ccc(N2CCC(C3CCN(C(=O)C(C)(C)c4ccccc4)CC3)CC2)nc1Cl [Example B-12, 2-chloro-N,N-dimethyl-6-[1′-(2-methyl-2-phenylpropanoyl)-4,4′-bipiperidin-1-yl]pyridine-3-carboxamide] the pEC50 [1, 3] was 6.16, the Emax [1] was 69% and the pEC50 [2] was 7.19. For the same molecule, the Emax [2] was 140%.
In the case of O=C(c1ccc(N2CCC(C3CCN(C(=O)[C@](O)(c4ccccc4)C(F)(F)F)CC3)CC2)cc1Cl)N1CC(F)C1 [Example E-45, (2R)-3-(1′-{3-chloro-4-[(3-fluoroazetidin-1-yl)carbonyl]phenyl}-4,4′-bipiperidin-1-yl)-1,1,1-trifluoro-3-oxo-2-phenylpropan-2-ol], the pEC50 [1, 3] was 5.99, the Emax [1] was 12% and the pEC50 [2] was 6.38. It also gave an Emax [2] of 68%.
Molecule CN(C)C(=O)c1ccc(N2CCC(C3CCN(C(=O)[C@](O)(c4ccccc4)C(F)(F)C(F)(F)F)CC3)CC2)nc1Cl (single isomer, unassigned) [Example B-16] has a pEC50 [1, 3] of 5.87, an Emax [1] of 17% and a pEC50 [2] of 7.05. For the same molecule, the Emax [2] was 91%.
COc1ccc(C2(C(=O)N3CCC(C4CCN(c5ccc(C(=O)N(C)C)c(Cl)c5)CC4)CC3)CC2)cc1 [Example A-48, 2-chloro-4-(1′-{[1-(4-methoxyphenyl)cyclopropyl]carbonyl}-4,4′-bipiperidin-1-yl)-N,N-dimethylbenzamide] was tested, and the “LXR alpha IP (nM)” value [1, 3] was “NO IP”, the Emax [1] was 0% and the pEC50 [2] was 6.54. It also gave an Emax [2] of 69%.
With CN(C)C(=O)c1ccc(N2CCC(C3CCN(C(=O)C(O)(C4CCC4)C(F)(F)F)CC3)CC2)cc1Cl (centres unmarked) [Example A-10, 2-chloro-4-[1′-(2-cyclobutyl-3,3,3-trifluoro-2-hydroxypropanoyl)-4,4′-bipiperidin-1-yl]-N,N-dimethylbenzamide] the pEC50 [1, 3] was 6.12, the Emax [1] was 59% and the pEC50 [2] was 7.52. For the same molecule, the Emax [2] was 109%.
CC(C)CC(O)(C(=O)N1CCC(C2CCN(c3ccc(C(=O)N(C)C)c(Cl)n3)CC2)CC1)C(F)(F)F (centres unmarked) [Example B-7, 2-chloro-6-{1′-[2-hydroxy-4-methyl-2-(trifluoromethyl)pentanoyl]-4,4′-bipiperidin-1-yl}-N,N-dimethylpyridine-3-carboxamide] was tested, and the pEC50 [1, 3] was 5.84, the Emax [1] was 55% and the pEC50 [2] was 7.14. It also gave an Emax [2] of 127%.
CC1CCCN1C(=O)c1ccc(N2CCC(C3CCN(C(=O)[C@](O)(c4ccccc4)C(F)(F)F)CC3)CC2)cc1Cl (stereo partly drawn) [Example E-25, (2R)-3-(1′-{3-chloro-4-[(2-methylpyrrolidin-1-yl)carbonyl]phenyl}-4,4′-bipiperidin-1-yl)-1,1,1-trifluoro-3-oxo-2-phenylpropan-2-ol] showed a pEC50 [1, 3] of 6.11, an Emax [1] of 15% and a pEC50 [2] of 6.48. It also gave an Emax [2] of 88%.
Molecule CN(C)C(=O)c1ccc(N2CCC(C3CCN(C(=O)C4(c5cc(F)ccc5F)CCC4)CC3)CC2)cc1Cl [Example A-76, 2-chloro-4-(1′-{[1-(2,5-difluorophenyl)cyclobutyl]carbonyl}-4,4′-bipiperidin-1-yl)-N,N-dimethylbenzamide] has a pEC50 [1, 3] of 5.70, an Emax [1] of 31% and a pEC50 [2] of 6.43. For the same molecule, the Emax [2] was 87%.
For CC(=O)Oc1ccc(C(C)(C)C(=O)N2CCC(C3CCN(c4ccc(C(=O)N(C)C)c(Cl)c4)CC3)CC2)cc1 [Example A-59, 4-(2-{1′-[3-chloro-4-(dimethylcarbamoyl)phenyl]-4,4′-bipiperidin-1-yl}-1,1-dimethyl-2-oxoethyl)phenyl acetate], the pEC50 [1, 3] was 5.58, the Emax [1] was 54% and the pEC50 [2] was 7.04. For the same molecule, the Emax [2] was 106%.
Molecule CNC(=O)c1ccc(N2CCC(C3CCN(C(=O)[C@](O)(c4ccccc4)C(F)(F)F)CC3)CC2)cc1Cl [Example E-62, 2-chloro-N-methyl-4-{1′-[(2R)-3,3,3-trifluoro-2-hydroxy-2-phenylpropanoyl]-4,4′-bipiperidin-1-yl}benzamide] has a pEC50 [1, 3] of 5.69, an Emax [1] of 33% and a pEC50 [2] of 6.47. For the same molecule, the Emax [2] was 99%.
In the case of O=C(c1ccc(N2CCC(C3CCN(C(=O)[C@](O)(c4ccccc4)C(F)(F)F)CC3)CC2)cc1Cl)N(CCF)CCF [Example E-67, 2-chloro-N,N-bis(2-fluoroethyl)-4-{1′-[(2R)-3,3,3-trifluoro-2-hydroxy-2-phenylpropanoyl]-4,4′-bipiperidin-1-yl}benzamide], the pEC50 [1, 3] was 5.68, the Emax [1] was 30% and the pEC50 [2] was 6.77. It also gave an Emax [2] of 106%.
With CN(C)C(=O)c1ccc(N2CCC(C3CCN(C(=O)c4c(F)cc(F)cc4F)CC3)CC2)cc1Cl [Example A-37, 2-chloro-N,N-dimethyl-4-{1′-[(2,4,6-trifluorophenyl)carbonyl]-4,4′-bipiperidin-1-yl}benzamide] the pEC50 [1, 3] was 5.39, the Emax [1] was 35% and the pEC50 [2] was 6.56. For the same molecule, the Emax [2] was 93%.
With CC(C)C(O)(C(=O)N1CCC(C2CCN(c3ccc(C(N)=O)c(Cl)c3)CC2)CC1)C(F)(F)F (centres unmarked) [Example E-4, 2-chloro-4-{1′-[2-hydroxy-3-methyl-2-(trifluoromethyl)butanoyl]-4,4′-bipiperidin-1-yl}benzamide] the pEC50 [1, 3] was 6.74, the Emax [1] was 67% and the pEC50 [2] was 7.29. It also gave an Emax [2] of 94%.
In the case of COCCCN(C)C(=O)c1ccc(N2CCC(C3CCN(C(=O)[C@](O)(c4ccccc4)C(F)(F)F)CC3)CC2)cc1Cl [Example E-48, 2-chloro-N-(3-methoxyproply)-N-methyl-4-{1′-[(2R)-3,3,3-trifluoro-2-hydroxy-2-phenylpropanoyl]-4,4′-bipiperidin-1-yl}benzamide], the pEC50 [1, 3] was 5.77, the Emax [1] was 26% and the pEC50 [2] was 6.76. For the same molecule, the Emax [2] was 106%.
Work on CN(C)C(=O)c1ccc(N2CCC(C3CCN(C(=O)C4(c5ccccc5Cl)CCCC4)CC3)CC2)cc1Cl [Example A-94, 2-chloro-4-(1′-{[1-(2-chlorophenyl)cyclopentyl]carbonyl}-4,4′-bipiperidin-1-yl)-N,N-dimethylbenzamide] yielded a pEC50 [1, 3] of 6.60, an Emax [1] of 67% and a pEC50 [2] of 7.89. It also gave an Emax [2] of 124%.
With CC(C)C(O)(C(=O)N1CCC(C2CCN(c3ccc(C(=O)N(C)C)c(Cl)n3)CC2)CC1)C1CC1 (centres unmarked) [Example B-3, 2-chloro-6-[1′-(2-cyclopropyl-2-hydroxy-3-methylbutanoyl)-4,4′-bipiperidin-1-yl]-N,N-dimethylpyridine-3-carboxamide] the pEC50 [1, 3] was 5.75, the Emax [1] was 71% and the pEC50 [2] was 6.49. The Emax [2] was 143%.
C=CCC(O)(C(=O)N1CCC(C2CCN(c3ccc(C(=O)N(C)C)c(Cl)c3)CC2)CC1)C(F)(F)F (centres unmarked) [Example A-57, 2-chloro-4-{1′-[2-hydroxy-2-(trifluoromethyl)pent-4-enoyl]-4,4′-bipiperidin-1-yl}-N,N-dimethylbenzamide] gave a pEC50 [1, 3] of 5.32, an Emax [1] of 58% and a pEC50 [2] of 6.51. For the same molecule, the Emax [2] was 112%.
In the case of CN(C)C(=O)c1ccc(N2CCC(C3CCN(C(=O)C4(c5c(F)cccc5Cl)CCCC4)CC3)CC2)cc1Cl [Example A-82, 2-chloro-4-(1′-{[1-(2-chloro-6-fluorophenyl)cyclopentyl]carbonyl}-4,4′-bipiperidin-1-yl)-N,N-dimethylbenzamide], the pEC50 [1, 3] was 6.83, the Emax [1] was 58% and the pEC50 [2] was 8.15. For the same molecule, the Emax [2] was 107%.
